Values of other authors in patent US10945989B2, “Perinatal treatment with a flavonoid agonist of the TrkB receptor for BDNF rescues neurogenesis and behavior in the Ts65Dn mouse model of DS” (ALMA MATER STUDIORUM—Universita' di Bologna, priority 2017, dated 2021).

Test system: Ts65Dn mouse model of DS
Settings: perinatal treatment, Bianchi et al., 2010b; Guidi et al., 2014; cited from earlier work

CNCCC(Oc1ccc(C(F)(F)F)cc1)c1ccccc1 (stereo not shown) [fluoxetine]
brain development and cognitive performance: fully restores brain development and cognitive performance
